The term EC50 denotes the concentration giving half of the maximal effect. A high value points to a need for much substance.

This test addresses T1, Y4 receptor (Homo sapiens, UniProt P50391).
T1 construct: host or cells: ACTOne HEK-293 cells
The test is described as follows: Y4 receptor ACTOne based FLIPR assay (cAMP biosensor). The format is cell-based. From the text: ACTOne™ is an easily scaleable cAMP biosensor HTS platform for measurement of Gs and Gi coupled 7™ receptor signalling from BD Biosciences (San Jose, Calif.). The cells express a biosensor developed around a modified rat olfactory cyclic nucleotide gated (CNG) calcium channel—a fairly non-discriminatory ion channel that responds to cAMP and cGMP. The CNG has been engineered to be cAMP selective and thus function as a cAMP responsive biosensor that signals through calcium or membrane potential responsive dyes. Y2 or Y4 receptor expressing ACTOne HEK-293 cells are obtained from BD Biosciences. The cells are loaded with a calcium responsive dye that only distributes in the cytoplasm. Probenecid, an inhibitor of the organic anion transporter is added to prevent the dye from leaving the cell. A phosphodiesterase inhibitor is added to prevent formatted cAMP from being degraded. Isoproterenol (an β1/β2 agonist) is added to activate the adenylate cyclase. When an Y2 or Y4 receptor agonist is added, the adenylate cyclase is inactivated. The decreased calcium concentration in the cytoplasm is then detected as an increase in fluorescence. Together with the test substance, Isoproterenol at a concentration matching EC80, is added to all wells. • The cells are plated out in Greiner 384-well plates. […] The plates are covered with tinfoil to avoid light (the dye can be excited by the daylight, which results in higher baseline and variation). • The FLIPR (FLIPRtetra from Molecular Devices, CA, USA) adds 1 μl sample and 1 μl isoproterenol (0.05 μM final concentration) at the same time. • The fluorescence signal from the wells is measured 330 seconds after sample addition on the FLIPR.

*1 amine or outer side, *2 acyl side, *3 side chain or, on linkers, in order; H or OH if unused. Where a SMILES comes first, the peptide text is derived from it. Side-chain parts run from the residue outwards. The star is where a group is joined. C20 diacid = O=C(O)CCCCCCCCCCCCCCCCCCC(=O)*; γGlu = O=C(O)[C@H](CCC(=O)[*:2])N[*:1]; Trx = NC[C@H]1CC[C@H](C(=O)O)CC1; AEEA = NCCOCCOCC(=O)O

T1 sequence (P50391 whole entry): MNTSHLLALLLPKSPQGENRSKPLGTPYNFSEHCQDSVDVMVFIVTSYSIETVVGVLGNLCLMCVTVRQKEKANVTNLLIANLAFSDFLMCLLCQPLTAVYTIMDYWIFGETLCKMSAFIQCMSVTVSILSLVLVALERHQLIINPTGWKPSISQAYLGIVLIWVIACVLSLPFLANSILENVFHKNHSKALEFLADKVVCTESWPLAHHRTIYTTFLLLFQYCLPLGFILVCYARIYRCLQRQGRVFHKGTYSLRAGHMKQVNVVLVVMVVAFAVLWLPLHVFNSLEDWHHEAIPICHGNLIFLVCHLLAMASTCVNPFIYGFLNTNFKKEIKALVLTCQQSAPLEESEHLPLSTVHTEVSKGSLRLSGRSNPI

In turn, `CC[C@H](C)[C@H](NC(=O)[C@H](Cc1ccc(O)cc1)NC(=O)[C@H](CCCNC(=N)N)NC(=O)[C@H](CCCNC(=N)N)NC(=O)[C@H](CC(C)C)NC(=O)[C@H](CC(=O)O)NC(=O)[C@H](C)NC(=O)[C@H](C)NC(=O)[C@H](Cc1ccc(O)cc1)NC(=O)[C@H](CCC(N)=O)NC(=O)[C@H](C)NC(=O)[C@H](CC(C)C)NC(=O)[C@H](CCC(N)=O)NC(=O)[C@H](CCC(=O)O)NC(=O)[C@@H]1CCCN1C(=O)[C@H](CCCCNC(=O)COCCOCCNC(=O)COCCOCCNC(=O)CC[C@H](NC(=O)[C@H]1CC[C@H](CNC(=O)CCCCCCCCCCCCCCCCCCC(=O)O)CC1)C(=O)O)NC(=O)[C@H](C)NC(=O)[C@H](CC(N)=O)NC(=O)[C@H](CC(=O)O)NC(=O)CNC(=O)[C@@H]1CCCN1C(=O)[C@H](Cc1ccc(O)cc1)NC(=O)[C@@H](NC(=O)[C@@H]1CCCN1C(=O)[C@H](CCC(=O)O)NC(=O)[C@H](CC(C)C)NC(=O)[C@@H]1CCCN1C(=O)[C@H](C)N)C(C)C)C(=O)N[C@@H](CC(N)=O)C(=O)N[C@H](C(=O)N[C@@H](CC(C)C)C(=O)N[C@H](C(=O)N[C@@H](CCCNC(=N)N)C(=O)N[C@@H](CCC(N)=O)C(=O)N[C@@H](CCCNC(=N)N)C(=O)N[C@@H](Cc1ccc(O)cc1)C(N)=O)[C@@H](C)O)C(C)C` [SEQ ID NO: 17, N-epsilon13-[2-(2-{2-[2-(2-{2-[(S)-4-Carboxy-4-({trans-4-[(19-carboxynonadecanoylamino)methyl]cyclohexanecarbonyl}amino)butyrylamino]-ethoxy}ethoxy)acetylamino]ethoxy}ethoxy)acetyl][Lys13,Leu17,Val30,Gln34]hPP(1-36)] (H-APLEPVYPGDNAK([AEEA-AEEA-γGlu-Trx-C20 diacid])PEQLAQYAADLRRYINVLTRQRY-NH2; N-terminus and C-terminus assumed) showed an EC50 of 0.007 µM.
The molecule `CC[C@H](C)[C@H](NC(=O)[C@H](Cc1ccc(O)cc1)NC(=O)[C@H](CCCNC(=N)N)NC(=O)[C@H](CCCNC(=N)N)NC(=O)[C@H](CC(C)C)NC(=O)[C@H](CC(=O)O)NC(=O)[C@H](C)NC(=O)[C@H](C)NC(=O)[C@H](Cc1ccc(O)cc1)NC(=O)[C@H](CCC(N)=O)NC(=O)[C@H](C)NC(=O)[C@H](CC(C)C)NC(=O)[C@H](CCC(N)=O)NC(=O)[C@H](CCC(=O)O)NC(=O)[C@@H]1CCCN1C(=O)[C@H](CCCCNC(=O)COCCOCCNC(=O)COCCOCCNC(=O)CC[C@H](NC(=O)[C@H]1CC[C@H](CNC(=O)CCCCCCCCCCCCCCCCCCC(=O)O)CC1)C(=O)O)NC(=O)[C@H](C)NC(=O)[C@H](CC(N)=O)NC(=O)[C@H](CC(=O)O)NC(=O)CNC(=O)[C@@H]1CCCN1C(=O)[C@H](Cc1ccc(O)cc1)NC(=O)[C@@H](NC(=O)[C@@H]1CCCN1C(=O)[C@H](CCC(=O)O)NC(=O)[C@H](CC(C)C)NC(=O)[C@@H]1CCCN1C(=O)[C@H](C)N)C(C)C)C(=O)N[C@@H](CC(N)=O)C(=O)N[C@@H](CC(C)C)C(=O)N[C@@H](CC(C)C)C(=O)N[C@H](C(=O)N[C@@H](CCCNC(=N)N)C(=O)N[C@@H](CCC(N)=O)C(=O)N[C@@H](CCCNC(=N)N)C(=O)N[C@@H](Cc1ccc(O)cc1)C(N)=O)[C@@H](C)O` [SEQ ID NO: 4] (H-APLEPVYPGDNAK([AEEA-AEEA-γGlu-Trx-C20 diacid])PEQLAQYAADLRRYINLLTRQRY-NH2; N-terminus and C-terminus assumed) displayed an EC50 of 0.018 µM.
As for `CC(C)C[C@H](NC(=O)[C@H](CCC(N)=O)NC(=O)[C@H](CCC(=O)O)NC(=O)[C@@H]1CCCN1C(=O)[C@H](CCCCNC(=O)COCCOCCNC(=O)COCCOCCNC(=O)CC[C@H](NC(=O)[C@H]1CC[C@H](CNC(=O)CCCCCCCCCCCCCCCCCCC(=O)O)CC1)C(=O)O)NC(=O)[C@H](C)NC(=O)[C@H](CC(N)=O)NC(=O)[C@H](CC(=O)O)NC(=O)CNC(=O)[C@@H]1CCCN1C(=O)[C@H](Cc1ccc(O)cc1)NC(=O)[C@@H](NC(=O)[C@@H]1CCCN1C(=O)[C@H](CCC(=O)O)NC(=O)[C@H](CC(C)C)NC(=O)[C@@H]1CCCN1C(=O)[C@H](C)N)C(C)C)C(=O)N[C@@H](C)C(=O)N[C@@H](CCC(N)=O)C(=O)N[C@@H](Cc1ccc(O)cc1)C(=O)N[C@@H](C)C(=O)N[C@@H](C)C(=O)N[C@@H](CC(=O)O)C(=O)N[C@@H](CC(C)C)C(=O)N[C@@H](CCCNC(=N)N)C(=O)N[C@@H](CCCNC(=N)N)C(=O)N[C@@H](Cc1ccc(O)cc1)C(=O)N[C@@H](CC(C)C)C(=O)N[C@@H](CC(N)=O)C(=O)N[C@H](C(=O)N[C@@H](CC(C)C)C(=O)N[C@H](C(=O)N[C@@H](CCCNC(=N)N)C(=O)N[C@@H](CCC(N)=O)C(=O)N[C@@H](CCCNC(=N)N)C(=O)N[C@@H](Cc1ccc(O)cc1)C(N)=O)[C@@H](C)O)C(C)C` [SEQ ID NO: 15, N-epsilon13-[2-(2-{2-[2-(2-{2-[(S)-4-Carboxy-4-({trans-4-[(19-carboxynonadecanoylamino)methyl]cyclohexanecarbonyl}amino)butyrylamino]-eth-oxy}ethoxy)acetylamino]ethoxy}ethoxy)acetyl][Lys13,Leu17,Leu28,Val30,Gln34]hPP(1-36)] (H-APLEPVYPGDNAK([AEEA-AEEA-γGlu-Trx-C20 diacid])PEQLAQYAADLRRYLNVLTRQRY-NH2; N-terminus and C-terminus assumed), the figure is 0.007 µM; as for `CC[C@H](C)[C@H](NC(=O)[C@H](Cc1ccc(O)cc1)NC(=O)[C@H](CCCNC(=N)N)NC(=O)[C@H](CCCNC(=N)N)NC(=O)[C@H](CC(C)C)NC(=O)[C@H](CC(=O)O)NC(=O)[C@H](C)NC(=O)[C@H](C)NC(=O)[C@H](Cc1ccc(O)cc1)NC(=O)[C@H](CCC(N)=O)NC(=O)[C@H](C)NC(=O)[C@H](CC(C)C)NC(=O)[C@H](CCC(N)=O)NC(=O)[C@H](CCC(=O)O)NC(=O)[C@@H]1CCCN1C(=O)[C@H](CCCCNC(=O)COCCOCCNC(=O)COCCOCCNC(=O)CC[C@H](NC(=O)[C@H]1CC[C@H](CNC(=O)CCCCCCCCCCCCCCCCCCC(=O)O)CC1)C(=O)O)NC(=O)[C@H](C)NC(=O)[C@H](CC(=O)O)NC(=O)[C@H](CC(N)=O)NC(=O)CNC(=O)[C@@H]1CCCN1C(=O)[C@H](Cc1ccc(O)cc1)NC(=O)[C@@H](NC(=O)[C@@H]1CCCN1C(=O)[C@H](CCC(=O)O)NC(=O)[C@H](CC(C)C)NC(=O)[C@@H]1CCCN1C(=O)[C@H](C)N)C(C)C)C(=O)N[C@@H](CC(N)=O)C(=O)N[C@@H](CC(C)C)C(=O)N[C@H](C(=O)N[C@H](C(=O)N[C@@H](CCCNC(=N)N)C(=O)N1CCC[C@H]1C(=O)N[C@@H](CCCNC(=N)N)C(=O)N[C@@H](Cc1ccc(O)cc1)C(N)=O)[C@@H](C)O)C(C)C` [SEQ ID NO: 14, N-epsilon13-[2-(2-{2-[2-(2-{2-[(S)-4-Carboxy-4-({trans-4-[(19-carboxynonadecanoylamino)methyl]cyclohexanecarbonyl}amino)butyrylamino]-eth-oxy}ethoxy)acetylamino]ethoxy}ethoxy)acetyl][Asn10,Asp11,Lys13,Leu17,Leu30,Val31]hPP(1-36)] (H-APLEPVYPGNDAK([AEEA-AEEA-γGlu-Trx-C20 diacid])PEQLAQYAADLRRYINLVTRPRY-NH2; N-terminus and C-terminus assumed), 0.018 µM.

The values are drawn from patent US20110275559A1, “Long-Acting Y2 and/or Y4 Receptor Agonists” (Novo Nordisk A/S, priority 2008, published 2011).
